# Laboratory results as given in article PMC11873722 (Cancer Discovery, 2024).
# Assays:
# [1] = Free drug exposure in LUN055 PDX study; type: in vivo, mouse
# [2] = target: RAF1(RBD):KRAS^G12C(ON) interaction in MIA PaCa-2 cells (Homo sapiens, UniProt P01116, G12C); assay: RAS:RAF ELISA assay in MIA PaCa-2 cells; type: cell-based; settings: 1 µmol/L
# KRAS^G12C NSCLC = settings: patients with NSCLC with prior KRAS^G12C(OFF)-only inhibitor treatment; cited from earlier work
# Chain of RAF1(RBD):KRAS^G12C(ON) interaction in MIA PaCa-2 cells (P01116 1-188 isoform P01116-2 G12C): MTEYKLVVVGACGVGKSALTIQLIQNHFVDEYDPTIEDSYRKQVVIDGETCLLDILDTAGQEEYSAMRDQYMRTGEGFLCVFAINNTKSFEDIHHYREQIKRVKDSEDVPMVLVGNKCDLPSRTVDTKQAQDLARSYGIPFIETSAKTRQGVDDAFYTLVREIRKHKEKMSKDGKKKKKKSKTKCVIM
compound,measurement,setting,value
C=CC(=O)N1CCN(c2nc(=O)n(-c3c(C)ccnc3C(C)C)c3nc(-c4c(O)cccc4F)c(F)cc23)[C@@H](C)C1 [Sotorasib],free AUC0–24 hours,[1]; 100 mg/kg sotorasib,"1,563 hours × ng/mL"
same,free drug concentration higher compared with BBO-8520,[1]; 100 mg/kg sotorasib vs 30 mg/kg BBO-8520,20 fold
C=CC(=O)N1CCN(c2nc(OC[C@@H]3CCCN3C)nc3c(F)c(-c4nc(N)cc(C)c4C(F)(F)F)c(Cl)cc23)[C@@H](C)C1 [GDC-6036],time required to achieve maximal activity,[2],more than 60 minutes
CCn1c(-c2cccnc2[C@H](C)OC)c2c3cc(ccc31)N1CCO[C@@H](C[C@H](NC(=O)[C@H](C(C)C)N(C)C(=O)C3(F)CCN(C(=O)C#CC(C)(C)N(C)C)CC3)C(=O)N3CCC[C@H](N3)C(=O)OCC(C)(C)C2)C1 [RMC-6291],objective response rate,KRAS^G12C NSCLC,50%
